Laboratory results as given in publication PMC9274761, “Effects of Structurally Different HDAC Inhibitors against Trypanosoma cruzi, Leishmania, and Schistosoma mansoni” (ACS Infectious Diseases, 2022).

Columns and labels:
HDAC1 = HDAC1 (Homo sapiens, UniProt Q13547); experiment: HDAC1 protease-coupled fluorescence (AMC) inhibition assay; type: biochemical; details: hr enzyme, 10-dose, 3-fold dilution from 50 μM (3: from 300 μM); read-out: IC50 against HDAC1
Description: (§1) The new hydroxamates 2 and 6 were screened and profiled via a protease-coupled assay in which the quantification of HDAC enzyme activity is based on the formation of a free fluorescent group, the 7-amino-4-methyl coumarin (AMC).[42] […] After deacetylation by HDACs, the de(trifluoro)acetylated AMC–peptides were sensitive toward lysine peptidase and free fluorogenic AMC was generated and quantified.[42]
(§2) To gain insights into its inhibition profile for human HDACs, we tested 3 against hrHDACs 1–6 and 8 following the above procedure (Table 1).
(§3) Individual IC50 values for each HDAC isozyme were measured with the homogeneous fluorescence release HDAC assay.[42]

HDAC3 = HDAC3 (Homo sapiens, UniProt O15379); experiment: HDAC3 protease-coupled fluorescence (AMC) inhibition assay; type: biochemical; details: hr enzyme, 10-dose, 3-fold dilution from 50 μM (3: from 300 μM); read-out: IC50 against HDAC3
Description: as §1, §2, §3

HDAC4 = HDAC4 (Homo sapiens, UniProt P56524); experiment: HDAC4 protease-coupled fluorescence (AMC) inhibition assay; type: biochemical; details: hr enzyme, class IIa substrate Boc-Lys(trifluoroacetyl)-AMC; read-out: IC50 against HDAC4
Chain of HDAC4 (P56524 whole entry): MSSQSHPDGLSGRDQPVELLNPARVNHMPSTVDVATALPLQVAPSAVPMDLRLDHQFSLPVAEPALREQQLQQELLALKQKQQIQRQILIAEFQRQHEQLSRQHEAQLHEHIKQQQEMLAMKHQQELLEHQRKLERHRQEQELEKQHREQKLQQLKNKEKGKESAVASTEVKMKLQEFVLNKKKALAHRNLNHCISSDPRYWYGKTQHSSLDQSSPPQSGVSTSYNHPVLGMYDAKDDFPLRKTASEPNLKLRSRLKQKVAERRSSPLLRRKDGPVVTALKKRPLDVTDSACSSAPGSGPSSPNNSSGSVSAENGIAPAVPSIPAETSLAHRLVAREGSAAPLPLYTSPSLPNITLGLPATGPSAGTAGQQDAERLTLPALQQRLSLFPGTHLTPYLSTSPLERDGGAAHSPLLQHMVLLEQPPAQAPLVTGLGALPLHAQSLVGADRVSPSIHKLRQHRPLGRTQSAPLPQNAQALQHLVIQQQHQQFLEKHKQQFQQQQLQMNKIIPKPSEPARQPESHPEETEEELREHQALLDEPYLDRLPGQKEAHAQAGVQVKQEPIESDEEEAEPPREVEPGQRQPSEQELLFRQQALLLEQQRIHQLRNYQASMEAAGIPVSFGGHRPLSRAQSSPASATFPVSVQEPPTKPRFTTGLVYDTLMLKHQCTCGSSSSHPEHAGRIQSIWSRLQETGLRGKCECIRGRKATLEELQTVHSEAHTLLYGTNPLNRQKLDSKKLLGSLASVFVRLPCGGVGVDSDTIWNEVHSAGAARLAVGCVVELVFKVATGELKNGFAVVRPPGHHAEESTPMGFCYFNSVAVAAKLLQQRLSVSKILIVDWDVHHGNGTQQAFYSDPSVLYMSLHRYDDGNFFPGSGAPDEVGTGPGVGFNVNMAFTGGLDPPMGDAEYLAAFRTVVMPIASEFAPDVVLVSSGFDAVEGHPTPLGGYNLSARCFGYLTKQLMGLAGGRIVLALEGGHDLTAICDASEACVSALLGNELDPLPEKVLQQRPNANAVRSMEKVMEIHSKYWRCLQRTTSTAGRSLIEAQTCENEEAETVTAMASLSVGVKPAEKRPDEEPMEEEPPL
Description: as §1, §2, §3

HDAC5 = HDAC5 (Homo sapiens, UniProt Q9UQL6); experiment: HDAC5 protease-coupled fluorescence (AMC) inhibition assay; type: biochemical; details: for IC50: hr enzyme, class IIa substrate Boc-Lys(trifluoroacetyl)-AMC, read-out: IC50 against HDAC5
Chain of HDAC5 (Q9UQL6 whole entry): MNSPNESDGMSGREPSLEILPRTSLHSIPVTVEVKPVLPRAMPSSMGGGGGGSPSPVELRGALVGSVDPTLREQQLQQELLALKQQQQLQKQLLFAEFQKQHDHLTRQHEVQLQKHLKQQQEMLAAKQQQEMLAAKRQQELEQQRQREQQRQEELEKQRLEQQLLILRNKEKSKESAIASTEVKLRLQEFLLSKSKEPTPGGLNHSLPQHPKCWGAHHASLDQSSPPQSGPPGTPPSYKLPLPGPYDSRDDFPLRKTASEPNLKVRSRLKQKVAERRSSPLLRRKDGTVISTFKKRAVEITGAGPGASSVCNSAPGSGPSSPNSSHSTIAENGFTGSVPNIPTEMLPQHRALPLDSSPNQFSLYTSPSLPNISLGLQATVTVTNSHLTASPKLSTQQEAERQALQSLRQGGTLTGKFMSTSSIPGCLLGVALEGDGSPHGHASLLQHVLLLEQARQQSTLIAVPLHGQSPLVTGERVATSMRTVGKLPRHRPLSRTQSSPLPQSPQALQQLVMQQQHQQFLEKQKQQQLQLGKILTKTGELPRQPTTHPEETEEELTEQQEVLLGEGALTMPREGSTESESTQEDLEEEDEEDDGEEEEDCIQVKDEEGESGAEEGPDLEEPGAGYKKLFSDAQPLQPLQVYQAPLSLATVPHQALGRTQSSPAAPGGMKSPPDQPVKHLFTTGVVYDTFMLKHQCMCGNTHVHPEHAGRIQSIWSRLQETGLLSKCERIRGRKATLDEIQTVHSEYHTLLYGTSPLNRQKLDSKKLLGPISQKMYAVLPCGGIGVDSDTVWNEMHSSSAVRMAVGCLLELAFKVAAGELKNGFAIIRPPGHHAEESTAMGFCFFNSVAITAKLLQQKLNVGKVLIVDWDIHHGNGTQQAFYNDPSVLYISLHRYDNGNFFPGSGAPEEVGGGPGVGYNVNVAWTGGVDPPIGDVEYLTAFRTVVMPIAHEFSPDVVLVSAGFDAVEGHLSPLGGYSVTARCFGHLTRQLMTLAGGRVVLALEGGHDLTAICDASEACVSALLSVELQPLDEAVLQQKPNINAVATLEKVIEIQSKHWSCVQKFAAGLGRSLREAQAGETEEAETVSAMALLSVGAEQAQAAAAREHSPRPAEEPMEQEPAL
Description: as §1, §2, §3

HDAC6 = biological target: T1, HDAC6 (Homo sapiens, UniProt Q9UBN7); experiment: HDAC6 protease-coupled fluorescence (AMC) inhibition assay; type: biochemical; details: hr enzyme, 10-dose, 3-fold dilution from 50 μM (3: from 300 μM); read-out: IC50 against HDAC6
T1 sequence (Q9UBN7 1-1215): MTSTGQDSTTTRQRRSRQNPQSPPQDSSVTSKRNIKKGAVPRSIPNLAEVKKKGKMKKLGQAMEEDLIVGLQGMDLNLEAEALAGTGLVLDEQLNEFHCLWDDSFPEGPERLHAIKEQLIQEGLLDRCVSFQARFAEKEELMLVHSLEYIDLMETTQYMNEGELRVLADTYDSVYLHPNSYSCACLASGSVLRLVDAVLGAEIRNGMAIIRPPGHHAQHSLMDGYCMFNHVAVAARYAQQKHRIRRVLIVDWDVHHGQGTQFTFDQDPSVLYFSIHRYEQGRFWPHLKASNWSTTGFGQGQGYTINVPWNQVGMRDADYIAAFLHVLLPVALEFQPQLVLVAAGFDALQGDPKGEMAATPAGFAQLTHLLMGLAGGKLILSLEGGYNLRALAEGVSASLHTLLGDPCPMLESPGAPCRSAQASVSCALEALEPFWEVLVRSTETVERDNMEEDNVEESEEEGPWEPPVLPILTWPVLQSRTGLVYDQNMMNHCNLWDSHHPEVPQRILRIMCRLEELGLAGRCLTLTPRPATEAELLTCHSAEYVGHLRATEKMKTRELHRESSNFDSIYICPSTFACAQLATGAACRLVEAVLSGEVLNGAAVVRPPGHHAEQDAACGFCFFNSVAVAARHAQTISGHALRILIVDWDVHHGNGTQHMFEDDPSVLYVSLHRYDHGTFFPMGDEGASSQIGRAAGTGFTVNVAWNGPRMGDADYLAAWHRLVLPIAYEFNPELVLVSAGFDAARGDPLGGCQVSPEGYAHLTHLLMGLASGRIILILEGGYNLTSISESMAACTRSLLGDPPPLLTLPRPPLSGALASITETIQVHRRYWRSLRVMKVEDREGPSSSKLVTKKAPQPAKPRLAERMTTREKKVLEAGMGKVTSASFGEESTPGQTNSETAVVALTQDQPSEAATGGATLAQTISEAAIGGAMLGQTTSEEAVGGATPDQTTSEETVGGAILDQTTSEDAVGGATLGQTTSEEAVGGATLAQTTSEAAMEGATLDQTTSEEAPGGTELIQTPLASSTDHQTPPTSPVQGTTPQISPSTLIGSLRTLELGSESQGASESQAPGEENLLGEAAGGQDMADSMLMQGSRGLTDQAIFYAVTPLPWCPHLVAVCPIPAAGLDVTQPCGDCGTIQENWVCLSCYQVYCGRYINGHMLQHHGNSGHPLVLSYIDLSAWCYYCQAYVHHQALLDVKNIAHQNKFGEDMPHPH
Description: as §1, §2, §3

HDAC7 = HDAC7 (Homo sapiens, UniProt Q8WUI4); experiment: HDAC7 protease-coupled fluorescence (AMC) inhibition assay; type: biochemical; details: hr enzyme, class IIa substrate; read-out: IC50 against HDAC7
Chain of HDAC7 (Q8WUI4 whole entry): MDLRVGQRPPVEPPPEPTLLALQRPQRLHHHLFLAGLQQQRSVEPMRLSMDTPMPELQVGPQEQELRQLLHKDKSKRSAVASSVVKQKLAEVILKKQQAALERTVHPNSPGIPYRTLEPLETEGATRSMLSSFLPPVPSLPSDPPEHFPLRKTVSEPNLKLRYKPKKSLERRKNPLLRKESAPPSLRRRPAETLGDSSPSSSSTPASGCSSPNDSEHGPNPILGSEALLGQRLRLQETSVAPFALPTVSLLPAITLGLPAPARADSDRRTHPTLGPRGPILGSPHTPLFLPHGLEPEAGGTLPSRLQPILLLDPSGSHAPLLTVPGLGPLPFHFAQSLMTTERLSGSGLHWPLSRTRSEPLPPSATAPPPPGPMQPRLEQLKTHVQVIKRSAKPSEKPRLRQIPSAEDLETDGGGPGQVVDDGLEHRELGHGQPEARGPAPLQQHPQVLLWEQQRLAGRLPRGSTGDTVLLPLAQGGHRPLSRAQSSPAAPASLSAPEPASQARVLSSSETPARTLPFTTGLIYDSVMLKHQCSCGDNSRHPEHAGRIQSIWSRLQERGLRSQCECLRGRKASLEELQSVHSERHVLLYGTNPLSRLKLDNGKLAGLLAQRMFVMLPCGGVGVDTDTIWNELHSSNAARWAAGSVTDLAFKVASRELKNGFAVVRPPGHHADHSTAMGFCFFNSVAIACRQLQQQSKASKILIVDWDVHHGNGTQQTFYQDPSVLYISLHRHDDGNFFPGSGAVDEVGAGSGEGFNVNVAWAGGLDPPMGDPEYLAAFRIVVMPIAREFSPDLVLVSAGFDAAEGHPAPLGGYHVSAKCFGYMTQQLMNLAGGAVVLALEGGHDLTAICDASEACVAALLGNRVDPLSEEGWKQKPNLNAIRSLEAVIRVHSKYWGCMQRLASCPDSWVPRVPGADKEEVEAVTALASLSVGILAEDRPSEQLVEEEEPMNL
Procedure: as §1, §3

HDAC9 = HDAC9 (Homo sapiens, UniProt Q9UKV0); experiment: HDAC9 protease-coupled fluorescence (AMC) inhibition assay; type: biochemical; details: hr enzyme, class IIa substrate; read-out: IC50 against HDAC9
Chain of HDAC9 (Q9UKV0 whole entry): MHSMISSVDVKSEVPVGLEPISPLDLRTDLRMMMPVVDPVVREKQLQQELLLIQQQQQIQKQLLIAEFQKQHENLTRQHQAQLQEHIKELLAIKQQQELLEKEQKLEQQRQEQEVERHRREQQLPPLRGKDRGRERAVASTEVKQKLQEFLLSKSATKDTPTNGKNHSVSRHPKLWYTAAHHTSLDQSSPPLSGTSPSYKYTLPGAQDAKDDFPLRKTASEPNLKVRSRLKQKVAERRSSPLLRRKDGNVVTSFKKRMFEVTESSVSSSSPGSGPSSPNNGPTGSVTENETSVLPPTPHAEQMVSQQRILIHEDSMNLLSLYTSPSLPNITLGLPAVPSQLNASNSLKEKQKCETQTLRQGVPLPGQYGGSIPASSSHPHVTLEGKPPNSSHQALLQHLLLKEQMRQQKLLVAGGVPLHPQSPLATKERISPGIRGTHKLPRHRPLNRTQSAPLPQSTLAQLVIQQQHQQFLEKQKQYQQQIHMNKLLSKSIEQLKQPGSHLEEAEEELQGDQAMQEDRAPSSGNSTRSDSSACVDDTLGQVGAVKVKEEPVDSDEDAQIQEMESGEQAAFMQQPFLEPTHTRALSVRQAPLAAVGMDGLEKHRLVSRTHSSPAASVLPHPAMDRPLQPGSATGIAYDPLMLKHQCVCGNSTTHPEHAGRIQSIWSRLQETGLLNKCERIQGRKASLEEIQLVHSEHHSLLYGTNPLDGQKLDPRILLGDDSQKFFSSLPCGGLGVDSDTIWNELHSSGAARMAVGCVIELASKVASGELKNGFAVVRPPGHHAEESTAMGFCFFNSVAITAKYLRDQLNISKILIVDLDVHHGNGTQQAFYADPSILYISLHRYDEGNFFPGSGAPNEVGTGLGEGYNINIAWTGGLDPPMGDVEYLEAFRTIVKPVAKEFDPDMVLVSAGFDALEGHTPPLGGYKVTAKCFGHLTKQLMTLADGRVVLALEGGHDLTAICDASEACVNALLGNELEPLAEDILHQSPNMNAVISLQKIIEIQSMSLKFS
Procedure: as §1, §3

HDAC10 = HDAC10 (Homo sapiens, UniProt Q969S8); experiment: HDAC10 protease-coupled fluorescence (AMC) inhibition assay; type: biochemical; details: hr enzyme; read-out: IC50 against HDAC10
Chain of HDAC10 (Q969S8 whole entry): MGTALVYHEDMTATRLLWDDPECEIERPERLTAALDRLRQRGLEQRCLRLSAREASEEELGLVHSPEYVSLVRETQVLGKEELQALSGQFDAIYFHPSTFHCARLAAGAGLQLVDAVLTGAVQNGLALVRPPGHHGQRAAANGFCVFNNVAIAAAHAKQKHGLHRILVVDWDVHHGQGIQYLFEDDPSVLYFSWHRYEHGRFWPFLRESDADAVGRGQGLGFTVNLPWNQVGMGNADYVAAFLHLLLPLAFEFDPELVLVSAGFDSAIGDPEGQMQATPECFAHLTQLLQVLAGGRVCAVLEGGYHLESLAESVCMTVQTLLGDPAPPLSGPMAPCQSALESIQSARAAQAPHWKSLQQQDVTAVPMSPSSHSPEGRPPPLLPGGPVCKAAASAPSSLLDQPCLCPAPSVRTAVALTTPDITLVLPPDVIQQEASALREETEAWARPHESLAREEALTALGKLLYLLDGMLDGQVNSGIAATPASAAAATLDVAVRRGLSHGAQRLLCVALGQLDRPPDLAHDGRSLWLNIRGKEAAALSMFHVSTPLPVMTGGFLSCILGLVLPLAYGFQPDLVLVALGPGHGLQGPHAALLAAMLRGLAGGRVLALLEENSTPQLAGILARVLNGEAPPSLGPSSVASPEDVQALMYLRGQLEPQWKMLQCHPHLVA
Procedure: as §1, §3

HDAC11 = HDAC11 (Homo sapiens, UniProt Q96DB2); experiment: HDAC11 protease-coupled fluorescence (AMC) inhibition assay; type: biochemical; details: hr enzyme; read-out: IC50 against HDAC11
Procedure: as §1, §3

[1] = test system: T. cruzi amastigotes and trypomastigotes; experiment: T. cruzi infection assay in L929 cells (beta-galactosidase Tulahuen strain); type: cell-based, Trypanosoma cruzi; details: infected L929 cells, 96 h; for EC50, growth of T. cruzi amastigotes and trypomastigotes: mean ± SD
[2] = test system: L. amazonensis promastigotes; experiment: Resazurin reduction assay, L. amazonensis promastigotes; type: cell-based; details: Leishmania amazonensis, read-out: percentage of inhibition, L. amazonensis promastigotes
[3] = test system: L. donovani promastigotes; experiment: Resazurin reduction assay, L. donovani promastigotes; type: cell-based; details: Leishmania donovani, read-out: percentage of inhibition, L. donovani promastigotes
[4] = test system: L. donovani axenic amastigotes; experiment: Resazurin reduction assay, L. donovani axenic amastigotes; type: cell-based; details: Leishmania donovani, read-out: percentage of inhibition, L. donovani axenic amastigotes
[5] = test system: L. amazonensis amastigotes in primary mouse macrophages; details: 10 μM, 3 days, toxic = toxic for macrophages
in vitro = details: mouse, noninfected L929 fibroblast cells
[6] = Trypanosoma cruzi, read-out: percentage of T. cruzi growth inhibition
[7] = Trypanosoma cruzi, toxic = L929 death, read-out: percentage of T. cruzi growth inhibition

## CN(C)Cc1ccc(S(=O)(=O)n2ccc3cc(/C=C/C(=O)NO)ccc32)cc1 [Compound 6, 3-(1-((4-((Dimethylamino)methyl)phenyl)sulfonyl)-1H-indol-5-yl)-N-hydroxy Acrylamide]
HDAC1
  IC50: 2.07 µM
HDAC3
  IC50: 0.38 µM
HDAC4
  IC50: 16.7 µM
HDAC5
  IC50: 3.43 µM
HDAC5; ratio of IC50 HDAC4 / HDAC5
  fold more potent against HDAC5 than against HDAC4: 5 fold
HDAC6
  IC50: 0.018 µM
HDAC7
  IC50: > 50 µM
HDAC9
  IC50: 31.1 µM
HDAC10
  IC50: 2.87 µM
HDAC11
  IC50: 4.87 µM
[1]; 10 μM, toxic = L929 death
  percentage of T. cruzi growth inhibition: toxic
[1]; 20 μM, toxic = L929 death
  percentage of T. cruzi growth inhibition: toxic
[1]; 40 μM, toxic = L929 death
  percentage of T. cruzi growth inhibition: toxic
[1]; 80 μM, toxic = L929 death
  percentage of T. cruzi growth inhibition: toxic
[1]; 160 μM, toxic = L929 death
  percentage of T. cruzi growth inhibition: toxic
[1]; [6]
  inhibition at 1.25 µM: 0%
[1]; [7]
  inhibition at 2.5 µM: 0%
  inhibition at 5 µM: 3%
[1]
  EC50, growth of T. cruzi amastigotes and trypomastigotes: inactive
[2]
  inhibition at 4 µM: 9.2 ± 3.4%
  inhibition at 20 µM: 60.1 ± 1.7%
[3]
  inhibition at 0.8 µM: 7.9 ± 7.5%
  inhibition at 4 µM: 6.9 ± 8.7%
  inhibition at 20 µM: 8.6 ± 1.3%
[4]
  inhibition at 0.8 µM: 39.9 ± 2.1%
  inhibition at 4 µM: 0.1 ± 0.8%
  inhibition at 20 µM: 39.6 ± 5.5%
[5]
  HCA outcome against intramacrophagic L. amazonensis amastigotes: toxic
In vitro
  CC50 at 96 h: 5 µM

## O=C(/C=C/c1ccc(CSc2nc(Cl)cc(-c3ccccc3)n2)cc1)NO [Compound 2, 3-(4-(((4-Chloro-6-phenylpyrimidin-2-yl)thio)methyl)phenyl)-N-hydroxy Acrylamide]
HDAC1
  IC50: 1.68 µM
HDAC3
  IC50: 0.53 µM
HDAC4
  IC50: 17.3 µM
HDAC5
  IC50: 22.9 µM
HDAC6
  IC50: 0.12 µM
HDAC7
  IC50: > 50 µM
HDAC9
  IC50: > 50 µM
HDAC10
  IC50: 2.8 µM
HDAC11
  IC50: 2.31 µM
[1]; 40 μM, toxic = L929 death
  percentage of T. cruzi growth inhibition: toxic
[1]; 80 μM, toxic = L929 death
  percentage of T. cruzi growth inhibition: toxic
[1]; 160 μM, toxic = L929 death
  percentage of T. cruzi growth inhibition: toxic
[1]; [6]
  inhibition at 1.25 µM: 0%
[1]; [7]
  inhibition at 2.5 µM: 0%
  inhibition at 5 µM: 0%
[1]; Trypanosoma cruzi, 10 μM, toxic = L929 death, read-out: percentage of T. cruzi growth inhibition
  inhibition at 10 µM: 0%
[1]; Trypanosoma cruzi, 20 μM, toxic = L929 death, read-out: percentage of T. cruzi growth inhibition
  inhibition at 20 µM: 3%
[1]
  EC50, growth of T. cruzi amastigotes and trypomastigotes: inactive
[2]
  inhibition at 4 µM: 11.3 ± 1.7%
  inhibition at 20 µM: 83.3 ± 1.8%
[3]
  inhibition at 0.8 µM: 1.1 ± 2%
  inhibition at 4 µM: 2.5 ± 1.4%
  inhibition at 20 µM: 74.8 ± 2.5%
[4]
  inhibition at 0.8 µM: 16.4 ± 18.6%
  inhibition at 4 µM: 7.8 ± 1.1%
  inhibition at 20 µM: 60.2 ± 1.4%
[5]
  HCA outcome against intramacrophagic L. amazonensis amastigotes: toxic
In vitro
  CC50 at 96 h: 20 µM
